Results taken from patent publication US4804663A, “3-piperidinyl-substituted 1,2-benzisoxazoles and 1,2-benzisothiazoles” (Janssen Pharmaceutica N.V., priority 1986, dated 1989).
Read-outs that look alike come from different tables or passages of the source.

What was measured:
[1] = tested on: apomorphine-induced emesis; experiment: apomorphine test in dogs (APO-dog); assay type: in vivo, beagle dog; settings: Canis lupus familiaris, sc, read-out: ED50 (APO)--dog
From the text: (§1) The activity of the subject compounds as […] is evidenced by the experimental data obtained in at least one of two different test procedures, viz., the combined apomorphine-, tryptamine- and norepinephrine tests in rats and the apomorphine test in dogs.
The apomorphine test in dogs (APO-dog).
The method used is described by P. A. J. Janssen and C. J. E. Niemegeers in Arzneim.-Forsch. (Drug Res.), 9, 765-767 (1959). […]
The table 1 gives the ED50 -values of a number of the compounds under consideration. As used herein, the ED50 value represents the dose which protects 50% of the animals from emesis.

[2] = tested on: apomorphine-induced agitation and stereotypic chewing; experiment: combined test in rats: apomorphine (APO); assay type: in vivo, rat (adult male Wistar rats); settings: Rattus norvegicus, sc, 0.5 h, read-out: ED50 (APO)--rat
Protocol: as §1
(§2) The combined apomorphine (APO)-, tryptamine (TRY)- and norepinephrine (NOR) test in rats.
(§3) The experimental animals used in this test were adult male Wistar rats (weight 240±10 g). After an overnight fast, the animals were treated subcutaneously (1 ml/100 g) with an aqueous solution of the compound under investigation (time=zero) and put in isolated observation cages. Thirty minutes thereafter (time=30 minutes) 1.25 mg/kg of apomorphine hydrochloride (APO) was injected intravenously and the rats were observed over a 1 hour period for the presence or absence of the following apomorphine-induced phenomena; agitation and stereotypic chewing. At the end of this 1 hour period (time=90 minutes) the same animals were injected intravenously with 40 mg/kg of tryptamine (TRY) and the presence of the typical tryptamine-induced bilateral tonic seizures was noted. Two hours after pretreatment (time=120 minutes) finally, the same animals were challenged with 1.25 mg/kg intravenously of norephinephrine (NOR) and possible mortality was looked for up to 60 minutes later.
(§4) The table 1 gives the ED50 -value of a number of the compounds under consideration. As used herein, the ED50 -value represents the dose which protects 50% of the animals from apomorphine-, tryptamine- or norepinephrine-induced phenomena.

[3] = tested on: norepinephrine-induced mortality; experiment: combined test in rats: norepinephrine (NOR); assay type: in vivo, rat (adult male Wistar rats); settings: Rattus norvegicus, sc, 2 h; norepinephrine 1.25 mg/kg i.v. at 120 minutes; dose protecting 50% of animals
Protocol: as §1, §2, §3, §4

[4] = tested on: tryptamine-induced bilateral tonic seizures; experiment: combined test in rats: tryptamine (TRY); assay type: in vivo, rat (adult male Wistar rats); settings: Rattus norvegicus, sc, 1.5 h, read-out: ED50 (TRY)--rat
Protocol: as §1, §2, §3, §4

[5] = duration 1 h, apomorphine 0.31 mg/kg s.c., dose protecting 50% from emesis
[6] = duration 4 h, apomorphine 0.31 mg/kg s.c., dose protecting 50% from emesis
[7] = s.c., apomorphine 1.25 mg/kg i.v. 30 minutes after treatment, dose protecting 50% of animals
[8] = s.c., tryptamine 40 mg/kg i.v. at 90 minutes, dose protecting 50% of animals

Row | Compound | ED50 ([1]; 1 h) [mg/kg] | ED50 ([1]; 2 h) [mg/kg] | ED50 ([1]; 4 h) [mg/kg] | ED50 ([1]; 8 h) [mg/kg] | ED50 ([1]; 16 h) [mg/kg] | ED50 [2] [mg/kg] | ED50 [3] [mg/kg] | ED50 [4] [mg/kg] | ED50 [1, 5] [mg/kg] | ED50 [1, 6] [mg/kg] | ED50 ([1]; duration 16 h, apomorphine 0.31 mg/kg s.c., dose protecting 50% from emesis) [mg/kg] | ED50 [2, 7] [mg/kg] | ED50 [4, 8] [mg/kg]
1 | Cc1nc2n(c(=O)c1CCN1CCC(c3noc4cc(F)ccc34)CC1)CCCC2 [Compound 1, 3-[2-[4-(6-fluoro-1,2-benzisoxazol-3-yl)-1-piperidinyl]ethyl]-6,7,8,9-tetrahydro-2-methyl-4H-pyrido[1,2-a]pyrimidin-4-one] | 0.008 | 0.005 | 0.015 | 0.018 | 0.02 | 0.08 | 0.16 | 0.08 |  |  |  |  | 
2 | Cc1nc2sccn2c(=O)c1CCN1CCC(c2noc3cc(F)ccc23)CC1 [Compound 2, 6-[2-[4-(6-fluoro-1,2-benzisoxazol-3-yl)-1-piperidinyl]ethyl]-7-methyl-5H-thiazolo[3,2-a]pyrimidin-5-one] |  |  |  |  |  |  | 0.31 |  | 0.004 | 0.008 | 0.16 | 0.02 | 0.005
3 | Cc1nc2ccccn2c(=O)c1CCN1CCC(c2noc3cc(F)ccc23)CC1 [Compound 11, 3-[2-[4-(6-fluoro-1,2-benzisoxazol-3-yl)-1-piperidinyl]ethyl]-2-methyl-4H-pyrido[1,2-a]pyrimidin-4-one] |  |  |  |  |  |  | 0.16 |  | 0.015 | 0.03 |  | 0.02 | 0.01
4 | Cc1nc2scc(C)n2c(=O)c1CCN1CCC(c2noc3cc(F)ccc23)CC1 [Compound 13, 6-[2-[4-(6-fluoro-1,2-benzisoxazol-3-yl)-1-piperidinyl]ethyl]-3,7-dimethyl-5H-thiazolo[3,2-a]pyrimidin-5-one] |  |  |  |  |  |  | 0.08 |  | 0.015 | 0.06 |  | 0.02 | 0.02
5 | Cc1nc2n(c(=O)c1CCN1CCC(c3noc4cc(F)ccc34)CC1)CCS2 [Compound 14, 6-[2-[4-(6-fluoro-1,2-benzisoxazol-3-yl)-1-piperidinyl]ethyl]-2,3-dihydro-7-methyl-5H-thiazolo[3,2-a]pyrimidin-5-one] |  |  |  |  |  |  | 0.31 |  | 0.004 | 0.004 |  | 0.02 | 0.005
6 | Cc1nc2n(c(=O)c1CCN1CCC(c3noc4cc(F)ccc34)CC1)CCCS2 [Compound 15, 7-[2-[4-(6-fluoro-1,2-benzisoxazol-3-yl)-1-piperidinyl]ethyl]-3,4-dihydro-8-methyl-2H,6H-pyrimido[2,1-b][1,3]thiazin-6-one] |  |  |  |  |  |  | 0.31 |  | 0.015 | 0.06 |  | 0.08 | 0.01
